Results taken from patent US11141407B2, “Pharmaceutical composition for preventing or treating aids comprising rhodanine derivative” (AVIXGEN INC., priority 2018, dated 2021).
Where two headings read alike, the source gives them in different places.

Tests used:
Assay type in all cases: cell-based
[1] = tested on: NL43-derived HIV-1 carrying the GFP gene; settings: p24 ELISA after 4 days; for Actually measured virus inhibitory value (%): alone, MT4 cells
Experimental: MT4 cells (a type of T cell line) were cultured in RPMI supplemented with 10% FBS and 10% antibiotics (penicillin and streptomycin). The cells were subcultured every 2 days in a humidified incubator at 37° C. and 5% CO2 for maintenance.
All viruses used for infection are NL43-derived HIV-1 carrying the GFP gene. The viral gene is recombined with the GFP gene, so that an expression rate of GFP may represent a level of viral infection. In order to identify antiviral efficacy, MT4 cells, which are a human-derived T cell line, were used. The MT4 cells were inoculated into 48-well plates at a density of 1×10^5 cells/well and infected with HIV-1 in an amount corresponding to 0.5 ng of HIV-1 p24. Treatment with mixtures to be tested for efficacy was performed simultaneously with the infection. The mixtures were prepared by mixing AVI-CO-004 with AZT, 3TC, Tenofovir, or FTC, respectively. […] Virus supernatant was collected and cell residues were removed. Then, analysis was performed. The viral production was quantified by p24 ELISA assay.
Specifically, 100,000 MT4 cells were respectively inoculated into 48-well plates and infected with HIV-1 in an amount corresponding to 0.5 ng of HIV-1 p24. Treatment with AVI-CO-004 was performed at indicated concentrations. After 4 days, an amount of viruses produced was quantified by p24 ELISA assay.
(§1) In the present experiment, antiviral efficacy of a mixture of AVI-CO-004 and AZT was identified. First, 100,000 MT4 cells were respectively inoculated into 48-well plates and infected with HIV-1 in an amount corresponding to 0.5 ng of HIV-1 p24. Treatment with a mixture of AVI-CO-004 and AZT was performed at indicated concentrations. After 4 days, an amount of viruses produced was quantified by p24 ELISA assay.
as §1, with “3TC” for “AZT”
as §1, with “TFV” for “AZT”
as §1, with “FTC” for “AZT”

[2] = tested on: NL43-derived HIV-1 carrying the GFP gene; experiment: Reinfectivity of viral particles produced after treatment: healthy MT4 cells reinfected (2.5 ng p24), GFP-positive cells counted by FACS after 48 hours; settings: for Decreased reinfectivity (%): alone, reinfection of MT4 cells, FACS
Experimental: In order to identify reinfectivity of viruses produced after treatment with AVI-CO-004 alone, healthy T cells inoculated at 1×10^5 cells into 48-well plates were infected with the same amount (2.5 ng in p24) of purified viral particles produced in infection assay in Example 2. After 48 hours, a level of reinfectivity of the viral particles was identified by GFP expression using a fluorescence microscope. For quantification, GFP-positive cells re-infected with the viruses were counted using a fluorescence activated cell sorter (FACS) and indicated (A of FIG. 9), and the results were graphically represented (B of FIG. 9).
In order to compare reinfectivity of the viruses produced after treatment with AVI-CO-004 alone and after combined treatment with AVI-CO-004/AZT/3TC or AVI-CO-004/TFV/FTC, the purified viral particles produced after the combined treatment in Example 2 and a control which had not been treated with an inhibitor were quantified at the same amount (2.5 ng of p24), and used to reinfect healthy T cells.
First, healthy MT4 cells were inoculated at 1×10^5 cells into 48-well plates and infected with the same amount (2.5 ng in p24) of purified viral particles produced in infection assay in Example 2. After 48 hours, a level of reinfectivity of the viruses was identified by GFP expression using a fluorescence microscope. For quantification, GFP-positive cells re-infected with the viruses were counted using a fluorescence activated cell sorter (FACS) and indicated, and the results were graphically represented (FIGS. 10 and 11).

[3] = tested on: NL43-derived HIV-1 carrying the GFP gene; settings: alone, MT4 cells, p24 ELISA 3 days after infection
Experimental: Specifically, MT4 cells were inoculated at 1×10^5 cells into 48-well plates and infected with HIV-1 in an amount corresponding to 1 ng of p24. All viruses used for the infection are NL43-derived HIV-1 carrying the GFP gene. Together with the infection, the cells were treated with 0.5 μM, 1 μM, 2.5 μM, or 5 μM of AVI-CO-004 alone. Three days after the infection, a level of viral proliferation was identified by GFP expression using a fluorescence microscope (A of FIG. 6). Virus supernatant was collected and cell residues were removed; and HIV-1 P24 antigen ELISA assay was performed to identify a level of viral production (B of FIG. 6).
First, MT4 cells were inoculated at 1×10^5 cells into 48-well plates and infected with HIV-1 in an amount corresponding to 1 ng of p24. Together with the infection, the cells were treated with AVI-CO-004 at 0.5 μM and 1 μM in combination with 1 nM of AZT (zidovudine) and 0.5 nM of 3TC (lamivudine) fixed as basal therapeutic agents. Three days after the infection, a level of viral proliferation was identified by GFP expression using a fluorescence microscope (A of FIG. 7). Virus supernatant was collected and cell residues were removed; and HIV-1 P24 antigen ELISA assay was performed to identify a level of viral production (B of FIG. 7).
First, MT4 cells were inoculated at 1×10^5 cells into 48-well plates and infected with HIV-1 in an amount corresponding to 1 ng of p24. Together with the infection, the cells were treated with AVI-CO-004 at 0.5 μM, 1 μM, 2.5 μM, and 5 μM in combination with 0.25 μM of TFV and 0.2 μM of FTC fixed as basal therapeutic agents. Three days after the infection, a level of viral proliferation was identified by GFP expression using a fluorescence microscope (A of FIG. 8). Virus supernatant was collected and cell residues were removed; and HIV-1 P24 antigen ELISA assay was performed to identify a level of viral production (B of FIG. 8).

Nc1ccn([C@@H]2CS[C@H](CO)O2)c(=O)n1 [3TC, 2′-3′-dideoxy-3′-thiacytidine]
Actually measured virus inhibitory value (%) ([1]; amount used 1 nM): 25%

Cc1cn([C@H]2C[C@H](N=[N+]=[N-])[C@@H](CO)O2)c(=O)[nH]c1=O [AZT, 3′-azido-3′-deoxythymidine]
Actually measured virus inhibitory value (%) ([1]; amount used 1 nM): 9%

C[C@H](Cn1cnc2c(N)ncnc21)OCP(=O)(O)O [TFV, tenofovir]
Actually measured virus inhibitory value (%) ([1]; amount used 0.25 μM): 30%

Nc1nc(=O)n([C@@H]2CS[C@H](CO)O2)cc1F [FTC]
Actually measured virus inhibitory value (%) ([1]; amount used 5 nM): 19%

O=C(O)CCN1C(=O)/C(=C/c2ccc(-c3ccc(Cl)cc3)o2)SC1=S [AVI-CO-004, 3-{5-[5-(4-chloro-phenyl)-furan-2-ylmethylene]-4-oxo-2-thioxo-thiazolidin-3-yl}-propionic acid]
reinfectivity of viruses produced after treatment, compared with a control ([2]; treatment alone, reinfection of healthy cells): significantly decreased reinfectivity
Decreased reinfectivity (%) ([2]; viruses produced under 0.5 μM): 35.8%
Decreased reinfectivity (%) ([2]; viruses produced under 1 μM): 65.3%
Decreased reinfectivity (%) ([2]; viruses produced under 2.5 μM): 97.5%
Decreased reinfectivity (%) ([2]; viruses produced under 5 μM): 97.5%
Actually measured virus inhibitory value (%) ([3]; amount used 0.5 μM): 14.4%
Actually measured virus inhibitory value (%) ([3]; amount used 1 μM): 44%
Actually measured virus inhibitory value (%) ([3]; amount used 2.5 μM): 61.2%
Actually measured virus inhibitory value (%) ([3]; amount used 5 μM): 76.3%
Actually measured virus inhibitory value (%) ([1]; amount used 2.5 μM): 12%
Actually measured virus inhibitory value (%) ([1]; amount used 5 μM): 40%
antiviral effect (amount of viruses produced) ([1]; treatment alone at increasing concentrations, p<0.05): concentration-dependent antiviral effect
